The values below come from ChEMBL document CHEMBL1145498, “A systematic interaction map of validated kinase inhibitors with Ser/Thr kinases” (Proc Natl Acad Sci U S A, 2007).

For experiment [1], the target named is Calcium/calmodulin-dependent protein kinase type II subunit beta (Homo sapiens) (UniProt Q13554).
In experiment [2] the target is Cyclin-dependent kinase 6 (Homo sapiens) (UniProt Q00534).
The target of experiment [3] is Casein kinase I isoform gamma-2 (Homo sapiens) (UniProt P78368).
The target in experiment [4] is Death-associated protein kinase 3 (Homo sapiens) (UniProt O43293).
In experiment [5] the target is Glycogen synthase kinase-3 beta (Homo sapiens, UniProt P49841).
Experiment [6] addresses Tyrosine-protein kinase JAK1 (Homo sapiens) (UniProt P23458).
Experiment [7] deals with T1, Dual specificity mitogen-activated protein kinase kinase 6 (Homo sapiens) (UniProt P52564).
T1 sequence (whole entry): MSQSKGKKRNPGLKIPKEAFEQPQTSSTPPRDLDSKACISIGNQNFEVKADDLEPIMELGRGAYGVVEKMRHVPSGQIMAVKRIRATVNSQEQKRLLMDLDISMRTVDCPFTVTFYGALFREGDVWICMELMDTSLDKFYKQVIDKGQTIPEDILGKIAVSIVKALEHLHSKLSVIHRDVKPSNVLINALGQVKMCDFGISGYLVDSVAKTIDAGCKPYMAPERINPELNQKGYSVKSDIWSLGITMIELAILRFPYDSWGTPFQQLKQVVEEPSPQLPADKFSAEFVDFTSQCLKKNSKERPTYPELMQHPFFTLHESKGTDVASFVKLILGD

The target in experiment [8] is T2, Mitogen-activated protein kinase kinase kinase 5 (Homo sapiens) (UniProt Q99683).
T2 sequence (whole entry): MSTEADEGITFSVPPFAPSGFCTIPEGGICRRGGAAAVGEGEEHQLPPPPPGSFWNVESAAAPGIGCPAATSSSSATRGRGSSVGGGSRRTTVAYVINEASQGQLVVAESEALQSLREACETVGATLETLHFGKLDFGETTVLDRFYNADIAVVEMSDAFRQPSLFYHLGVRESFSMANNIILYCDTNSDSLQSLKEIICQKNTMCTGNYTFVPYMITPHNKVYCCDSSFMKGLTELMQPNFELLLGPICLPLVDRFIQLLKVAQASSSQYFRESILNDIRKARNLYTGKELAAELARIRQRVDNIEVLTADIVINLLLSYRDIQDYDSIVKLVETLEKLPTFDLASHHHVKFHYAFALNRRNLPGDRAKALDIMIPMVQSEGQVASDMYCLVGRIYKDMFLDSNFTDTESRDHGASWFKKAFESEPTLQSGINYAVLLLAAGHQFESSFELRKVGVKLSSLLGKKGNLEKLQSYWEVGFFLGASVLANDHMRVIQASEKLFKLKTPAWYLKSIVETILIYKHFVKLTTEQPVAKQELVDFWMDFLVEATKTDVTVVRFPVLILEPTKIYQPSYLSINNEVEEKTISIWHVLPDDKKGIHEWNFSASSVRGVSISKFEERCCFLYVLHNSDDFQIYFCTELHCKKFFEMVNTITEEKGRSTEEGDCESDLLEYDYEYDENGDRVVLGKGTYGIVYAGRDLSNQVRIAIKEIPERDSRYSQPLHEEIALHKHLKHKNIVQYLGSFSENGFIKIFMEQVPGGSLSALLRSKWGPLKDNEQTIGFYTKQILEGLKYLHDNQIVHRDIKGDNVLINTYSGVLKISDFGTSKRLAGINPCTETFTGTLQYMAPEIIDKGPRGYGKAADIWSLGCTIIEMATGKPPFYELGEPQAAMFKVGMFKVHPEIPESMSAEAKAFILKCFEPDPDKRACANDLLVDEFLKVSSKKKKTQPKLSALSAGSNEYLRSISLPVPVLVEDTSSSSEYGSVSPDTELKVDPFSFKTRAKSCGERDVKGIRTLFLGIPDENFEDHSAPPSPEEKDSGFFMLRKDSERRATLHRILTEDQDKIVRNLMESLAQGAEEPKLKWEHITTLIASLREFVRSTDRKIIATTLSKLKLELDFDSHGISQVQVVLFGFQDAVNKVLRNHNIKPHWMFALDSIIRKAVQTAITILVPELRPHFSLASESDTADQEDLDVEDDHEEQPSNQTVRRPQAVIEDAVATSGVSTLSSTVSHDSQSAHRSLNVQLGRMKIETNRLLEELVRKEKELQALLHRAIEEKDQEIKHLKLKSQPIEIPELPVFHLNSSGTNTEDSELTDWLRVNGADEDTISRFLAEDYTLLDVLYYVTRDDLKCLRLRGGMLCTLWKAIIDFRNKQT

In experiment [9] the target is Mitogen-activated protein kinase 6 (Homo sapiens) (UniProt Q16659).
Experiment [10] deals with Serine/threonine-protein kinase 26 (Homo sapiens) (UniProt Q9P289).
Experiment [11] concerns the target Serine/threonine-protein kinase PAK 4 (Homo sapiens) (UniProt O96013).
The target of experiment [12] is Serine/threonine-protein kinase pim-3 (Homo sapiens) (UniProt Q86V86).
The target in experiment [13] is cAMP-dependent protein kinase catalytic subunit alpha (Homo sapiens) (UniProt P17612).
In experiment [14] the target is Ribosomal protein S6 kinase alpha-3 (Homo sapiens) (UniProt P51812).
The target in experiment [15] is T3, Serine/threonine-protein kinase VRK1 (Homo sapiens) (UniProt Q99986).
T3 sequence (whole entry): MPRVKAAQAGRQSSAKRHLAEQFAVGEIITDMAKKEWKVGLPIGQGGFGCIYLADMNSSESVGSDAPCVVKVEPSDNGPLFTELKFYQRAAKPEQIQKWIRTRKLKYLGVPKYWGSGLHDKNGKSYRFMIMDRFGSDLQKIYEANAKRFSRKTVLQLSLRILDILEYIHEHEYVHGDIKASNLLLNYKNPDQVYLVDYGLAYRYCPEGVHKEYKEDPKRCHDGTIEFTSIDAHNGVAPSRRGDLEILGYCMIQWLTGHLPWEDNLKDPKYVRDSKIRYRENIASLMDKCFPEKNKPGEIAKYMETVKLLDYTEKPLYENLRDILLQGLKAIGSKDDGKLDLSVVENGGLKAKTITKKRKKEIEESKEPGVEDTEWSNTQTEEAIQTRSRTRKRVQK

One may read the ΔTm as the shift of the melting midpoint relative to a reference.

Ribosomal protein S6 kinase alpha-3 (Homo sapiens), sequence (P51812 whole entry): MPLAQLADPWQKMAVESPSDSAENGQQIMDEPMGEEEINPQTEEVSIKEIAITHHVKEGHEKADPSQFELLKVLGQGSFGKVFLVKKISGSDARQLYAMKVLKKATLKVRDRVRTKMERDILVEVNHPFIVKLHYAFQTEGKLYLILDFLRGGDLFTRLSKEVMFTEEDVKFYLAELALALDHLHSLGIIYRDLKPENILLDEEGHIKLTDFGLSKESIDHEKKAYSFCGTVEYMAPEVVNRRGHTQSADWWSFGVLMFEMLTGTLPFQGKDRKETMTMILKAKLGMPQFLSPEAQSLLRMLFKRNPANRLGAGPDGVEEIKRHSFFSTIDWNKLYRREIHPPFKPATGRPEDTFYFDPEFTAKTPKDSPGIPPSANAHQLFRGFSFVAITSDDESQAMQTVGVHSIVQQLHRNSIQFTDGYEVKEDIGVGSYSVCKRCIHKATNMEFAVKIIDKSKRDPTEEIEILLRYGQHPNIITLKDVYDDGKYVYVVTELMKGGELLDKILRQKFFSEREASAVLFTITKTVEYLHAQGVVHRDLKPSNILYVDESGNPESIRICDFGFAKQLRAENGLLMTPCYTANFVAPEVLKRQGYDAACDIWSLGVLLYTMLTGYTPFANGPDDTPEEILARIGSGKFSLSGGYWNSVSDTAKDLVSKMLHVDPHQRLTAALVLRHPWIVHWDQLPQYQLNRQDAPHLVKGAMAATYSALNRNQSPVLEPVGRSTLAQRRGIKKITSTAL
Death-associated protein kinase 3 (Homo sapiens), sequence (O43293 whole entry, looked up): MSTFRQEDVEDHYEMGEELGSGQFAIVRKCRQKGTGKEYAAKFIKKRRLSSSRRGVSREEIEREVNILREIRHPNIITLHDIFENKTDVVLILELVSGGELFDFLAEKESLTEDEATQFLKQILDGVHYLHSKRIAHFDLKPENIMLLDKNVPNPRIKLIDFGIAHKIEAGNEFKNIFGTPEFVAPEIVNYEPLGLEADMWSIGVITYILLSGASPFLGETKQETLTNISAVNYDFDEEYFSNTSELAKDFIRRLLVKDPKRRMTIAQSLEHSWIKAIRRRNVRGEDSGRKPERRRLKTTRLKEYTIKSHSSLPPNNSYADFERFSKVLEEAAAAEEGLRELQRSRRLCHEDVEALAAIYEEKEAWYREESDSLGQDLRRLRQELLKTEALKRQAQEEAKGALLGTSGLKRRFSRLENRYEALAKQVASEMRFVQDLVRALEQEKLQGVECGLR
Casein kinase I isoform gamma-2 (Homo sapiens), sequence (P78368 whole entry, looked up, canonical isoform): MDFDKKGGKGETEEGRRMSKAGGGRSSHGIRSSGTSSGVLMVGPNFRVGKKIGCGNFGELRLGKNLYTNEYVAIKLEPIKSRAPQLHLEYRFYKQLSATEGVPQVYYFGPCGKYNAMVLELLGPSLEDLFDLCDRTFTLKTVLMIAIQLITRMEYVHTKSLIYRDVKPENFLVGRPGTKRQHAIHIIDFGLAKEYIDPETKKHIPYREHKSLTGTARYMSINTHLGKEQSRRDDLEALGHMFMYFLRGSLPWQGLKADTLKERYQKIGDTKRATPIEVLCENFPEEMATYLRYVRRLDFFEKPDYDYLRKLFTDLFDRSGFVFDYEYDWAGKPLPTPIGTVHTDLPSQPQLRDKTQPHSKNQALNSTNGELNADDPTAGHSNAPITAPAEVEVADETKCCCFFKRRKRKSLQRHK
Serine/threonine-protein kinase PAK 4 (Homo sapiens), sequence (O96013 whole entry, looked up): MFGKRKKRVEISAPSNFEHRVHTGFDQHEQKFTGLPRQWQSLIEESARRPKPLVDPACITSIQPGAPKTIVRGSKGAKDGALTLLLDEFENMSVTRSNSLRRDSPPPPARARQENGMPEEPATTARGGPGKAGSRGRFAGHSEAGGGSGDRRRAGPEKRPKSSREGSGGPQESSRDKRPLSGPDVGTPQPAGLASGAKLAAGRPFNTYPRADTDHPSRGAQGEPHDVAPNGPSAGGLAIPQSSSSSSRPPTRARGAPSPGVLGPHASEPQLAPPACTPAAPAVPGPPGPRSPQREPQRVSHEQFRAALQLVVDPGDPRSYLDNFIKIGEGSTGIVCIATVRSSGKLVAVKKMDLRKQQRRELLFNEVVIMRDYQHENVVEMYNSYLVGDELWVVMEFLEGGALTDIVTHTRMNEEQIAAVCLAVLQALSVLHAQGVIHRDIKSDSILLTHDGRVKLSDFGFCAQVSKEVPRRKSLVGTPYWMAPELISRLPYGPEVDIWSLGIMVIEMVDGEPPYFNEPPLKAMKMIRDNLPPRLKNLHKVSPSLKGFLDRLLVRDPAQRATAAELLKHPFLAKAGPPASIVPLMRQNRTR
Glycogen synthase kinase-3 beta, sequence (P49841 whole entry, looked up): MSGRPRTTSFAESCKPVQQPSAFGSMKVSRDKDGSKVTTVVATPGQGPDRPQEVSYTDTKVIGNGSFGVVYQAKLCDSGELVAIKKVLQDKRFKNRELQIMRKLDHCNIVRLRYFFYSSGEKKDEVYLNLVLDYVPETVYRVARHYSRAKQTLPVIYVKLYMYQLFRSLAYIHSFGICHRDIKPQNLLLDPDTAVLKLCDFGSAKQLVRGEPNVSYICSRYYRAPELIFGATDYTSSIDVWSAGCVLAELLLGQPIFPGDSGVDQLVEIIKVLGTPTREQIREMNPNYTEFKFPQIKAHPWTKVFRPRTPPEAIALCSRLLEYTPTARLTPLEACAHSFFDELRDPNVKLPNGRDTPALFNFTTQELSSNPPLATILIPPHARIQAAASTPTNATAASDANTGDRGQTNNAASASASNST
Calcium/calmodulin-dependent protein kinase type II subunit beta (Homo sapiens), sequence (Q13554 whole entry): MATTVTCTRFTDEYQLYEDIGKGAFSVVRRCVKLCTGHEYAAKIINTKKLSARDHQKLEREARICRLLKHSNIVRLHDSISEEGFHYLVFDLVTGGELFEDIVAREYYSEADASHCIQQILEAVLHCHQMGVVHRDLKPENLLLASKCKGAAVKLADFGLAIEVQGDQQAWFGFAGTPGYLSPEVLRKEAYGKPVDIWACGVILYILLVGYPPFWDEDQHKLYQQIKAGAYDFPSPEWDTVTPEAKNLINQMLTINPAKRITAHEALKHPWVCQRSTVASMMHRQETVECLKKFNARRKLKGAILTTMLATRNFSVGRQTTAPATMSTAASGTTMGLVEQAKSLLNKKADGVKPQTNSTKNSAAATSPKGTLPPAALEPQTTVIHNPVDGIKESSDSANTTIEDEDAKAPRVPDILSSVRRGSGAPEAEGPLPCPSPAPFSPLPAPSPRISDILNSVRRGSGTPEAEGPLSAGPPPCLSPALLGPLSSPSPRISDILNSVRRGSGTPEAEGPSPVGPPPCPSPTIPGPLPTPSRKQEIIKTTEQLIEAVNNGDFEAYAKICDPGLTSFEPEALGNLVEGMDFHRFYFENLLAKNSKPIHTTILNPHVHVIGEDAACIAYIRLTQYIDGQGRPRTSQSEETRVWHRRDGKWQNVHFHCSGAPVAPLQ
Tyrosine-protein kinase JAK1 (Homo sapiens), sequence (P23458 whole entry): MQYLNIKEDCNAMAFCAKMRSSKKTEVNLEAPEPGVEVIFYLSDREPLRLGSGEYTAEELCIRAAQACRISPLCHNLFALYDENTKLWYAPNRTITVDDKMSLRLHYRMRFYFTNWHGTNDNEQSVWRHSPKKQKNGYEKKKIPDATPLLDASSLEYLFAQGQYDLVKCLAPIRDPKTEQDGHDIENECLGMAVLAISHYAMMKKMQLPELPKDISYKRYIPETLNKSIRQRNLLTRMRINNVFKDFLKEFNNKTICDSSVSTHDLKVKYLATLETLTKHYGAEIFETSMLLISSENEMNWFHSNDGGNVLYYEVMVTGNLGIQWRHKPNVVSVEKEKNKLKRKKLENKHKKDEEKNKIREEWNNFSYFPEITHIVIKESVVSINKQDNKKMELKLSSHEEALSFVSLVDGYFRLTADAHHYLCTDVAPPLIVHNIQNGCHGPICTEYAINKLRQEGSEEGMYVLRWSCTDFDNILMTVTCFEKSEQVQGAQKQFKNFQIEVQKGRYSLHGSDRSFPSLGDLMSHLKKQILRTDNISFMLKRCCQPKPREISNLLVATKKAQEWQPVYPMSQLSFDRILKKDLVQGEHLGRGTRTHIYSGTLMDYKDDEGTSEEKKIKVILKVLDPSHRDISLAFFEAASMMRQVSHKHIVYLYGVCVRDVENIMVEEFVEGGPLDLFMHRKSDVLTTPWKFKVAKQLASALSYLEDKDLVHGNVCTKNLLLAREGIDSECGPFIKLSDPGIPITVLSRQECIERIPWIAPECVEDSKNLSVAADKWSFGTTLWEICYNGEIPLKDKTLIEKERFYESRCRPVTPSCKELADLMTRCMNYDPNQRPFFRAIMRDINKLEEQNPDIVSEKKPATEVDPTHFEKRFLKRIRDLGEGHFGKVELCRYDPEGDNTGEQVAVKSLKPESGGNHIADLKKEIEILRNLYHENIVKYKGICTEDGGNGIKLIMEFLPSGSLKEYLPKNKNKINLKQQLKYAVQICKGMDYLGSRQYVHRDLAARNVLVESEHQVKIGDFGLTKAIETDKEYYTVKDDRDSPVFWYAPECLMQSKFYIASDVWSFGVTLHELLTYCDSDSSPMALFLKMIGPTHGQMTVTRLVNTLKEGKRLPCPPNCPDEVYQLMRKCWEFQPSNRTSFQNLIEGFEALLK

`Cc1c2ccncc2c(C)c2c1[nH]c1ccccc12` [ELLIPTECINE]: the ΔTm came to 1 °C in [1]; 0.2 °C in [2]; 0.2 °C in [3]; 4.3 °C in experiment [4]; 5.6 °C in experiment [5]; 2.3 °C in experiment [6]. For the same compound, the ΔTm in experiment [7] is 6.3 °C; in [8] it was 0.4 °C; in experiment [9], 1.5 °C; in experiment [10] it was 0.4 °C; in experiment [11] it was 0.7 °C; in experiment [12] it was 1.3 °C. The ΔTm turned out to be 5.9 °C in experiment [13], 1.8 °C in experiment [14] and 0.4 °C in experiment [15].
Take `C[S+]([O-])c1ccc(CSc2nc(-c3ccc(F)cc3)c(-c3ccncc3)[nH]2)cc1` (stereo not given): the ΔTm in experiment [1] worked out at 0 °C; in [2] it was 0.2 °C; in [3] it was 0.9 °C; in [4] it was 0.4 °C; in [5] it was 0 °C; in experiment [6], 0.2 °C. The ΔTm in experiment [7] was 0.1 °C; in [8], 0.9 °C; in experiment [9] it was -0.2 °C; in [10] it was 0.4 °C; in experiment [11], 0.1 °C; in experiment [12], -0.4 °C. In addition, the ΔTm in [13] is -0.2 °C; in [14], 0.1 °C; in experiment [15] it was -0.1 °C.
`CC(=O)O/N=C1/C(=C2/C(=O)Nc3cc(Br)ccc32)Nc2ccccc21` [6-BROMOINDIRUBIN-3'-ACETOXIME]: the ΔTm in experiment [1] is 0.9 °C; in [2], 2.8 °C; in experiment [3], 0.5 °C; in [4] it was -1.3 °C; in experiment [5], 9.4 °C; in [6] it was 2.5 °C. Also, the ΔTm in [7] is 0.8 °C; in experiment [8], -0.2 °C; in experiment [9], 0.3 °C; in experiment [10] it was -0.4 °C; in experiment [11] it was 2.2 °C; in experiment [12] it was 1.1 °C. Further, the ΔTm in [13] was determined as 3 °C; in experiment [14], 4.5 °C; in experiment [15], 0.3 °C.
Take `O=C1NC(=O)C(c2cn(CCCn3ccnc3)c3ccccc23)=C1Nc1ccccc1`: the ΔTm in experiment [1] amounted to 0.7 °C; in experiment [2] it was 0.9 °C; in experiment [3], 1 °C; in experiment [4], 1.3 °C; in experiment [5], 8.4 °C; in [6], 1.1 °C. Besides, the ΔTm in experiment [7] was 0.9 °C; in [8], 0.6 °C; in experiment [9] it was 0.6 °C; in experiment [10], 2 °C; in experiment [11] it was 0.7 °C; in [12], -0.3 °C. Also, the ΔTm worked out at 0.3 °C in [13], 6.3 °C in experiment [14] and 0.6 °C in [15].
For the compound `COc1ccc(CNc2nc(N(CCO)CCO)nc3c2ncn3C(C)C)cc1`, the shift in melting temperature (ΔTm) was 0.3 °C in [1]; -0.1 °C in experiment [2]; 1.6 °C in [3]; 0.7 °C in experiment [4]; 0.8 °C in [5]; 0.2 °C in experiment [6]. Moreover, the ΔTm was 0.1 °C in experiment [7]; 2 °C in [8]; -0.4 °C in experiment [9]; 0.8 °C in experiment [10]; 1.7 °C in experiment [11]; 0.2 °C in experiment [12]. For the same compound, the values for the ΔTm in [13], in experiment [14] and in experiment [15] were 0.5 °C, 1.7 °C and 0.7 °C, respectively.
With `NC1=N/C(=C2/CCNC(=O)c3[nH]ccc32)C(=O)N1` [DEBROMOHYMENIALDISINE], the ΔTm was 0.7 °C in [1]; 0.6 °C in experiment [2]; 3.5 °C in experiment [3]; 5.2 °C in experiment [4]; 5 °C in [5]; -0.2 °C in [6]. Besides, the ΔTm was determined as 0.3 °C in experiment [7]; 4.6 °C in experiment [8]; 0.3 °C in experiment [9]; 1.3 °C in experiment [10]; 0.9 °C in experiment [11]; 2.4 °C in [12]. The ΔTm is 0 °C in experiment [13], 6.4 °C in [14] and 1.3 °C in experiment [15].
Take `COc1ccc2c(c[n+](C)c3c4cc5c(cc4ccc23)OCO5)c1OC` [CHELERYTHRINE CHLORIDE]: the ΔTm in experiment [1] is 0.1 °C; in experiment [2], -1 °C; in experiment [3] it was -0.2 °C; in experiment [4], 0.1 °C; in [5] it was -1.5 °C; in experiment [6], 0.3 °C. Further, the ΔTm in [7] was -6.6 °C; in experiment [8], -0.2 °C; in experiment [9], -0.3 °C; in experiment [10], -1 °C; in experiment [11], -3.8 °C; in experiment [12], -0.9 °C. In addition, the thermal shift (ΔTm) was 1.4 °C in experiment [13], -0.3 °C in experiment [14] and -0.1 °C in experiment [15].
As for `N#CCCc1ccc2c(c1)-c1[nH]c3ccc([N+](=O)[O-])cc3c1CC(=O)N2` [ALSTERPAULLONE 2], the ΔTm in [1] was 0.2 °C; in [2], 3.2 °C; in experiment [3] it was 2 °C; in experiment [4], 1.7 °C; in [5], 11.8 °C; in [6] it was 1.4 °C. The thermal shift (ΔTm) was found to be 0.8 °C in experiment [7]; 1.8 °C in experiment [8]; 1.7 °C in [9]; 3.5 °C in experiment [10]; 4.3 °C in experiment [11]; 1.9 °C in experiment [12]. The ΔTm in experiment [13] was 1.1 °C; in experiment [14] it was 1.4 °C; in [15], 1.1 °C.
Turning to `O=S(=O)(c1cccc2c(Cl)cccc12)N1CCCNCC1`, the ΔTm in experiment [1] is 0.3 °C; in [2] it was 0.9 °C; in experiment [3], 0.3 °C; in experiment [4], 2.5 °C; in experiment [5], 0.2 °C; in experiment [6] it was 0 °C. The ΔTm was determined as 0 °C in [7]; 0.6 °C in experiment [8]; 0 °C in experiment [9]; 0 °C in experiment [10]; 0.8 °C in experiment [11]; 3.5 °C in experiment [12]. Further, the ΔTm in experiment [13] was 1.4 °C; in [14], -0.2 °C; in experiment [15], 0.3 °C.
